# Data as given in PMC6270011, “Design and Synthesis of Arylthiophene-2-Carbaldehydes via Suzuki-Miyaura Reactions and Their Biological Evaluation” (Molecules, 2013).
# Where two headings read alike, the source gives them in different places.
# Assays:
# [1] = target: urease enzyme (Canavalia ensiformis, UniProt P07374)
# [2] = Nitric oxide (NO) scavenging assay; format: biochemical
# Excerpt: Nitric oxide (NO) is a free radical causing inflammatory disorders and cancer in the human body when sodium nitroprusside decomposes to produce nitric oxide. The antioxidant activity of various thiophene derivatives has been reported in the literature and it has also been observed that compounds with high antioxidant activity served as antitumor agents. The newly synthesized compounds reacted directly with nitric oxide and inhibited nitrite formation in an excellent way.
# The reaction mixtures comprising sample solution (2 µL), phosphate buffer (17 µL) and sodium nitroprusside (20 µL) were incubated at 37 °C for 2 h in well plates. Then Griess reagent (20 µL, 0.3% sulphanilic acid in glacial acetic acid + 0.1% naphthylethylenediamine (NED): equal volumes of both solutions mixed just before use) was added to each well plate and the mixture kept at room temperature for 20 min to develop the color. The absorbance was measured at 528 nm by using an ELISA reader. The results were processed using Gen 5 software. All the reactions were performed in triplicate. Positive control (containing known antioxidant) and control (containing all samples) were run in parallel. Negative control was used to calibrate the instrument. The % age antioxidant activity was determined by using the following formula: % antioxidant activity = [(Absorbance of control − absorbance of sample)/(Absorbance of control)] × 100
# [3] = test system: human red blood cells (erythrocytes); format: cell-based; conditions: human erythrocytes, 37 °C, 35 min
# Description: Three mL of freshly obtained human blood was placed in heparinized tubes to avoid coagulation, gently mixed and poured into a sterile 15 mL Falcon tube and centrifuged for 5 min at 1,000 ×g. The supernatant was discarded and red blood cells were washed three times with chilled (4 °C) sterile isotonic phosphate buffer saline pH 7.4 (5 mL). Erythrocytes (10^8 cells/mL) were maintained for each assay by dilution with phosphate buffer saline. Erythrocytes were counted on a heamacytometer. Twenty µL of each compound was mixed with red blood cells suspension (180 μL) separately. The samples were incubated at 37 °C for 35 min. The samples were placed on ice for 5 min and then agitated at 1,000 ×g for 5 min. Supernatant (100 µL) were taken from each tube and diluted 10 times with chilled (4 °C) phosphate buffered saline. Triton X-100 (0.1% v/v) was taken as a positive control and PBS was negative control and then subjected to the same process. […] The percentage RBSs lyses for each sample was calculated.
# [4] = test system: Gram-negative bacteria; experiment: Antibacterial activity against Gram-negative bacteria (strain not named); format: cell-based
# [5] = test system: Escherichia coli; experiment: Antibacterial activity (disc / inhibition zone) against Escherichia coli; conditions: read-out: Inhibition zone, E.coli
# [6] = test system: Salmonella typhi; experiment: Antibacterial activity (disc / inhibition zone) against Salmonella typhi; conditions: Salmonella enterica, read-out: Inhibition zone, S. typhi
# [7] = test system: Bacillus subtilis; experiment: Antibacterial activity (disc / inhibition zone) against Bacillus subtilis; conditions: read-out: Inhibition zone, B. subtilis
# [8] = test system: Shigella dysenteriae; experiment: Antibacterial activity (disc / inhibition zone) against Shigella dysenteriae; conditions: read-out: Inhibition zone, S. dysenteriae
# [9] = test system: Staphylococcus aureus; experiment: Antibacterial activity (disc / inhibition zone) against Staphylococcus aureus; conditions: read-out: Inhibition zone, S. aureus
# [10] = test system: Pseudomonas aeruginosa; experiment: Antibacterial activity (disc / inhibition zone) against Pseudomonas aeruginosa; conditions: read-out: Inhibition zone, P. aeruginosa
# [11] = 25 µg/mL, read-out: % Activity at 25 µg (NO scavenging)
# [12] = 50 µg/mL, read-out: % Activity at 50 µg (NO scavenging)
# [13] = 100 µg/mL, read-out: % Activity at 100 µg (NO scavenging)
# Sequence of urease enzyme (P07374 whole entry, looked up): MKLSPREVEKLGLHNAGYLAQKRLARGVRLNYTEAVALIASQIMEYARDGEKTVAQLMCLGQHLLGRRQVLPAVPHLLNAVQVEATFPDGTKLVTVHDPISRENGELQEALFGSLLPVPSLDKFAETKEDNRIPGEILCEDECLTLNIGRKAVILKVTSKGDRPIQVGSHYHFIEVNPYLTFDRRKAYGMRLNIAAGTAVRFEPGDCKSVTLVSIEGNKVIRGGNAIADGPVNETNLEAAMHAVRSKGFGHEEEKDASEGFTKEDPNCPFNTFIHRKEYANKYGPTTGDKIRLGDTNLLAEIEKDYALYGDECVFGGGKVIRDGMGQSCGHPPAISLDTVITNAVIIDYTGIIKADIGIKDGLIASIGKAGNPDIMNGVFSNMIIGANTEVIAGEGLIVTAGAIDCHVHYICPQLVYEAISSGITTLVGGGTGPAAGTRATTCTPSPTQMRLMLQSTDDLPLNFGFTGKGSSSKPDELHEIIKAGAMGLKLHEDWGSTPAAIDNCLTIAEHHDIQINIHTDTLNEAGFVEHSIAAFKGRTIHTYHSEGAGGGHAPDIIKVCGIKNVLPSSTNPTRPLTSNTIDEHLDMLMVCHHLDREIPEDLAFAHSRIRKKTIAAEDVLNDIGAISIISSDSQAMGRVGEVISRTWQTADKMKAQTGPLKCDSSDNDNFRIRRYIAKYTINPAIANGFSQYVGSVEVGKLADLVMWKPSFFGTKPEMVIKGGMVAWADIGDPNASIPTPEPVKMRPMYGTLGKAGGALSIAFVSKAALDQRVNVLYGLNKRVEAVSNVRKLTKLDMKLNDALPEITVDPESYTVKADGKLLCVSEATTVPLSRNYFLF
SMILES,"inhibition [2, 11] [%]","inhibition [2, 12] [%]","inhibition [2, 13] [%]","Haemolytic activity, percentage of lysis (Average ± SD) [3] [%]",melting point [°C],zone of inhibition at 25 µg/mL [5] [mm],zone of inhibition at 25 µg/mL [6] [mm],zone of inhibition at 50 µg/mL [6] [mm],zone of inhibition at 25 µg/mL [7] [mm],zone of inhibition at 50 µg/mL [7] [mm],zone of inhibition at 25 µg/mL [8] [mm],zone of inhibition at 50 µg/mL [8] [mm],zone of inhibition at 25 µg/mL [9] [mm],zone of inhibition at 50 µg/mL [9] [mm],zone of inhibition at 25 µg/mL [10] [mm],zone of inhibition at 50 µg/mL [10] [mm],also measured
"NC(N)=S [Thiourea, thiourea, reference compound]",,,,,,,,,,,,,,,,,IC50 (urease inhibition) [1]: 27.5 mg/L; %age Activity at 25 μg (urease inhibition) ([1]; 25 µg/mL): 47 ± 0.007%; %age Activity at 50 μg (urease inhibition) ([1]; 50 µg/mL): 77 ± 0.015%
"Cc1cc(C)cc(-c2csc(C=O)c2)c1 [2g, 4-(3,5-Dimethylphenyl)thiophene-2-carbaldehyde]",13 ± 0.002,28 ± 0.007,43 ± 0.002,4.525 ± 0.075,71 to 73,22.5 ± 0.11,32.2 ± 0.11,61 ± 0.16,36 ± 0.08,56 ± 0.24,32 ± 0.01,59 ± 0.44,27 ± 0.08,59 ± 0.44,25 ± 0.06,56 ± 0.04,IC50 [4]: 45.2 mg/L; zone of inhibition at 50 µg/mL [5]: 44.5 ± 0.19 mm
"O=Cc1cc(-c2cc(C(F)(F)F)cc(C(F)(F)F)c2)cs1 [2b, 4-(3,5-Bis(trifloromethyl)phenyl)thiophene-2-carbaldehyde]",10 ± 0.02,45 ± 0.001,60 ± 0.021,5.003 ± 0.078,95 to 97,18 ± 0.13,33 ± 0.2,63 ± 0.25,23 ± 0.09,59 ± 0.1,33 ± 0.05,62.4 ± 0.1,36.6 ± 0.4,62.4 ± 0.1,42 ± 0.02,67 ± 0.01,IC50 (NO scavenging) [2]: 66.6 mg/L
